IC50 data for nine compounds are collected here from patent US20140005163A1 (NOVARTIS AG, priority 2010, published 2014).

Test [1] has as its target T1, PI3K alpha (Homo sapiens, UniProt P42336).
T1 construct: p85(iSH2) fusion partner (see partner chain) (N); His tag (C); made in house; host or cells: baculovirus; Tn5 (Trichoplusia ni) or TiniPro insect cells
Kind of test: PI3K alpha kinase assay (Kinase-Glo luminescence). Format: biochemical. An outline of the steps:
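IC50 is taken from a four-parameter logistic fit of 8-point dilutions, with Kinase-Glo luminescence reporting residual ATP. Reactions ran 60 min at room temperature in TRIS pH 7.5 buffer with MgCl2, NaCl, CHAPS and DTT. Final levels were 10 nM enzyme, 1 μM ATP and 10 μg/mL PI.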

Test [2] addresses T2, PI3K beta (Homo sapiens, UniProt P42338).
T2 construct: for the full-length p110-b subunit are generated and fused by overlapping PCR; p85(iSH2) fusion partner (see partner chain) (N); His tag (C); made in house; host or cells: baculovirus; Tn5 (Trichoplusia ni) or TiniPro insect cells
As to the kind of experiment: PI3K beta kinase assay (Kinase-Glo luminescence). Format: biochemical. The procedure, abridged: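 p110β full-length/p85 iSH2 construct (BV-949), 25 nM, with 1 μM ATP and 10 μg/mL phosphatidylinositol in 10 mM Tris pH 7.5, 3 mM MgCl2, 50 mM NaCl, 0.05% CHAPS, 1 mM DTT. 60 min at room temperature; ATP remaining read by Kinase-Glo luminescence. IC50 from 8-point four-parameter logistic fit.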
In general terms: Kinase-Glo measures the ATP left after a reaction by luminescence.

The test system of test [3] is PKB Ser473 phosphorylation in Rat1-myr-HA-p110 delta cells. As to the kind of experiment: Reverse protein array assay, PKB Ser473 phosphorylation in Rat1-myr-p110 delta cells. Format: cell-based. Particulars: read-out: p-PKB IC50. The procedure, abridged: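 Lysates were arrayed at four dilutions, and phospho-PKB Ser473 was quantified by relative fluorescence signal. They came from Rat1-myr-HA-p110 alpha, beta or delta cells exposed for 30 min at 37 °C to an 8-point compound series with 0.2% DMSO constant.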

T1 sequence (P42336 with tags, fused parts or gaps limits assumed): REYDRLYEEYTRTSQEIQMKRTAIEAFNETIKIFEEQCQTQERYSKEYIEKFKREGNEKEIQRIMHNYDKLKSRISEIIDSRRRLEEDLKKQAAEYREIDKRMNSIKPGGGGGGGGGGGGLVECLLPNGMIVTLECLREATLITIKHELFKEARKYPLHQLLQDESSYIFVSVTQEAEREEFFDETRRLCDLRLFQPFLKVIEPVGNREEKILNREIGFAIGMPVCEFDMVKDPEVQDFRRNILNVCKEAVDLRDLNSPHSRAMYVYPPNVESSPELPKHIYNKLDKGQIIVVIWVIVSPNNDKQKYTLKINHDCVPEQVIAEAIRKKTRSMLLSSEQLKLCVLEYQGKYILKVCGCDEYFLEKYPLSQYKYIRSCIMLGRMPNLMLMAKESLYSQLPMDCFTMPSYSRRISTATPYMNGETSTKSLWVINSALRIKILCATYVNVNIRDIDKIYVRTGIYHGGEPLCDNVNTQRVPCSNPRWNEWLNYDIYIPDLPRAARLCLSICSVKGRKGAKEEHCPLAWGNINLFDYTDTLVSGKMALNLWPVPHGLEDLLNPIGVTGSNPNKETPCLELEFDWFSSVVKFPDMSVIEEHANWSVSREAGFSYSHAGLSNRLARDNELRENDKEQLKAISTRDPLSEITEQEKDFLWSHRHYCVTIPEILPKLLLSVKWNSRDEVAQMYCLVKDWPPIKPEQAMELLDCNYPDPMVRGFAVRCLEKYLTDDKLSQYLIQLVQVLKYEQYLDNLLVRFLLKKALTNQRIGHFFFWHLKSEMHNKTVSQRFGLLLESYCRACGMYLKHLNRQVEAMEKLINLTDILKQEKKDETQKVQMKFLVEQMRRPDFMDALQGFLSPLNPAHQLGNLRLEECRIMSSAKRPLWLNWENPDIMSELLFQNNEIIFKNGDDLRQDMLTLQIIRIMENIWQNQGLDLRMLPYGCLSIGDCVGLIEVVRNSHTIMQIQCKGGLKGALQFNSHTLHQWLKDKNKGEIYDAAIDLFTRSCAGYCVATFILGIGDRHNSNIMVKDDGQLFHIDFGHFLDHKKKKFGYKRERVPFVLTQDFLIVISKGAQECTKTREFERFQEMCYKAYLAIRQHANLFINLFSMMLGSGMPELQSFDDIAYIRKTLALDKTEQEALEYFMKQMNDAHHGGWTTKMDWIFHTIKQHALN
T2 sequence (P42338 with tags, fused parts or gaps limits assumed): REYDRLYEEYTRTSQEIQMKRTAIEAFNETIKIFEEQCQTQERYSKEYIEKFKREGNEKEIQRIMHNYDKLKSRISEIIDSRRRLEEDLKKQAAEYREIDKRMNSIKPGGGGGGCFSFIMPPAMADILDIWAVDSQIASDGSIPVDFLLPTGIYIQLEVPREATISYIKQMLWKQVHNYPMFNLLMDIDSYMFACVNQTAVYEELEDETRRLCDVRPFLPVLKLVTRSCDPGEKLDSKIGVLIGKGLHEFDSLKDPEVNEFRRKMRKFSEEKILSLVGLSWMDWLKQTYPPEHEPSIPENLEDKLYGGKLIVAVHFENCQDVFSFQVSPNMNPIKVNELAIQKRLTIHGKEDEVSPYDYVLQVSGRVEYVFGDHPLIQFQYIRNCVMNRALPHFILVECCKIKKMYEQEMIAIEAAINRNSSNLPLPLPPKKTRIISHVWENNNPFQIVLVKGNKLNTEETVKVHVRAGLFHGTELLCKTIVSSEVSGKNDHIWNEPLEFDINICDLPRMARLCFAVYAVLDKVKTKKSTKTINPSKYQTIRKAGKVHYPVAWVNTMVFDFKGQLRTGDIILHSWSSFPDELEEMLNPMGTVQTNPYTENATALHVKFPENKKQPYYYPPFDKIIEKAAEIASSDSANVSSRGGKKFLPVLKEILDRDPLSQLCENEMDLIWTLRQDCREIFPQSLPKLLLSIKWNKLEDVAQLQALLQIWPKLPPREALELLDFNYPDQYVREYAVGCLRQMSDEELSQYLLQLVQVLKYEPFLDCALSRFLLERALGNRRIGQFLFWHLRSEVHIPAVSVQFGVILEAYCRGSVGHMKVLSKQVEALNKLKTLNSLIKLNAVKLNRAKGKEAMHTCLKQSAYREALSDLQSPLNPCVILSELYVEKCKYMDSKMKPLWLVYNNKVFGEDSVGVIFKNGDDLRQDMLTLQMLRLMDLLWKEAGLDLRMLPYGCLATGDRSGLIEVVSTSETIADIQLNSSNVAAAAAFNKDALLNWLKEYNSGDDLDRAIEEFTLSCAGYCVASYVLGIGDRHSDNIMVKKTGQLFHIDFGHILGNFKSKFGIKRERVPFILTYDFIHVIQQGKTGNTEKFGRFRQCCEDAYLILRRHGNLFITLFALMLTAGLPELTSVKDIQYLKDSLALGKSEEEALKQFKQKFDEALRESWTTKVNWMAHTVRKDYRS

What is called IC50 is the concentration needed to halve the response being measured. Take `CCOCc1ncc(-c2ccc3ncc4c(c3c2)n(-c2cn(C)nc2Cl)c(=O)n4C)cc1OC` [Example 196.1, 1-(3-Chloro-1-methyl-1H-pyrazol-4-yl)-8-(6-ethoxymethyl-5-methoxy-pyridin-3-yl)-3-methyl-1,3-dihydro-imidazo[4,5-c]quinolin-2-one]: the figures for the IC50 in test [1], in test [2] and in test [3] were 29 nM, 77 nM and 58 nM, respectively.
`COc1ncc(-c2ccc3ncc4c(c3c2)n(-c2cn(C)nc2Cl)c(=O)n4C)cc1CO` [Example 200, 1-(3-Chloro-1-methyl-1H-pyrazol-4-yl)-8-(5-hydroxymethyl-6-methoxy-pyridin-3-yl)-3-methyl-1,3-dihydro-imidazo[4,5-c]quinolin-2-one]: the IC50 in test [1] was found to be 9 nM; in test [2] it was 13 nM; in test [3], 7 nM.
The like results for `COCc1cc(-c2ccc3ncc4c(c3c2)n(-c2cn(C)nc2Cl)c(=O)n4C)cnc1OC` [Example 201, 1-(3-Chloro-1-methyl-1H-pyrazol-4-yl)-8-(6-methoxy-5-methoxymethyl-pyridin-3-yl)-3-methyl-1,3-dihydro-imidazo[4,5-c]quinolin-2-one] were, in that order, 4 nM, 6 nM and 10 nM.
Regarding `COc1cc(-c2ccc3ncc4c(c3c2)n(-c2cn(CCO)nc2C)c(=O)n4C)cnc1C` [Example 211.1, 1-[1-(2-Hydroxy-ethyl)-3-methyl-1H-pyrazol-4-yl]-8-(5-methoxy-6-methyl-pyridin-3-yl)-3-methyl-1,3-dihydro-imidazo[4,5-c]quinolin-2-one], the IC50 in test [1] was determined as 6 nM; in test [2], 18 nM; in test [3], 211 nM.
The like results for `Cc1nn(C(C)C)cc1-n1c(=O)n(C)c2cnc3ccc(-c4cncc(C(O)(CF)CF)c4)cc3c21` [Example 219, 8-[5-(2-Fluoro-1-fluoromethyl-1-hydroxy-ethyl)-pyridin-3-yl]-1-(1-isopropyl-3-methyl-1H-pyrazol-4-yl)-3-methyl-1,3-dihydro-imidazo[4,5-c]quinolin-2-one] were, in that order, 12 nM, 49 nM and 297 nM.
The like results for `CCn1cc(-n2c(=O)n(C)c3cnc4ccc(-c5cncc(C6(C#N)CCC6)c5)cc4c32)c(C)n1` [Example 221.2, 1-{5-[1-(1-Ethyl-3-methyl-1H-pyrazol-4-yl)-3-methyl-2-oxo-2,3-dihydro-1H-imidazo[4,5-c]quinolin-8-yl]-pyridin-3-yl}-cyclobutanecarbonitrile] were, in that order, 13 nM, 29 nM and 56 nM.
For the compound `CC(=O)Nc1cc(-c2ccc3ncc4c(c3c2)n(-c2cn(C)nc2C)c(=O)n4C)cnc1Cl` [Example 222, N-{2-Chloro-5-[1-(1,3-dimethyl-1H-pyrazol-4-yl)-3-methyl-2-oxo-2,3-dihydro-1H-imidazo[4,5-c]quinolin-8-yl]-pyridin-3-yl}-acetamide], the IC50 came out at 43 nM in test [1], 134 nM in test [2] and 68 nM in test [3].
`Cc1nn(C)cc1-n1c(=O)n(C)c2cnc3ccc(-c4cnc(Cl)c(NS(C)(=O)=O)c4)cc3c21` [Example 223, N-{2-Chloro-5-[1-(1,3-dimethyl-1H-pyrazol-4-yl)-3-methyl-2-oxo-2,3-dihydro-1H-imidazo[4,5-c]quinolin-8-yl]-pyridin-3-yl}-methanesulfonamide]: the results for the IC50 in test [1], in test [2] and in test [3] were 3 nM, 7 nM and 103 nM, respectively.
The like results for `Cc1nn(C)cc1-n1c(=O)n(C)c2cnc3ccc(-c4cnc(N)c(C(=O)NC(C)C)c4)cc3c21` [Example 225, 2-Amino-5-[1-(1,3-dimethyl-1H-pyrazol-4-yl)-3-methyl-2-oxo-2,3-dihydro-1H-imidazo[4,5-c]quinolin-8-yl]-N-isopropyl-nicotinamide] were, in that order, 20 nM, 44 nM and 69 nM.
